2 compounds from ChEMBL document CHEMBL3044925, “Synthesis of piperazino and morpholino derivatives of aryloxypropane with potential analgesic and possible antimigraine activities” (Med Chem Res, 2011) can be followed below.

In general, inhibition in vivo refers to the share of the control response that was lost under treatment.

Data set [1] relates to Mus musculus. In words: Neurotoxicity against Mus musculus MFI (mouse) assessed as muscle twitching at 90 mg/kg, ip. The conditions noted are these: in vivo. It is filed as toxicity, organism-based, Muscle tissue. On the set-up: dose 90 mg/kg, route intraperitoneal.
The test system of data set [2] is Mus musculus. In words: Neurotoxicity against Mus musculus MFI (mouse) assessed as tremors at 90 mg/kg, ip. It is filed as toxicity, organism-based. On the set-up: dose 90 mg/kg, route intraperitoneal. The conditions noted are these: in vivo.
In data set [3] the test system is Mus musculus. Briefly: Neurotoxicity against Mus musculus MFI (mouse) assessed as irritability at 90 mg/kg, ip. It is filed as toxicity, organism-based. On the set-up: dose 90 mg/kg, route intraperitoneal. Conditions: in vivo.
For data set [4], the system named is Mus musculus. In words: Neurotoxicity against Mus musculus MFI (mouse) assessed as effect on respiration at 90 mg/kg, ip. On the set-up: dose 90 mg/kg, route intraperitoneal. The conditions noted are these: in vivo. It is filed as toxicity, organism-based.
For data set [5], the system named is Mus musculus. In words: Neurotoxicity against Mus musculus MFI (mouse) assessed as eye protrusion at 90 mg/kg, ip. It is filed as toxicity, organism-based. On the set-up: dose 90 mg/kg, route intraperitoneal. Conditions: in vivo.
In data set [6] the test system is Mus musculus. In words: Neurotoxicity against Mus musculus MFI (mouse) assessed as skeletal muscle incoordination at 90 mg/kg, ip. Set-up: dose 90 mg/kg, route intraperitoneal. It is filed as toxicity, organism-based, Muscle tissue. Conditions: in vivo.
Data set [7] relates to Mus musculus. In words: Neurotoxicity against Mus musculus MFI (mouse) assessed as hair erection at 90 mg/kg, ip. Type of data set: toxicity, organism-based. On the set-up: dose 90 mg/kg, route intraperitoneal. The conditions noted are these: in vivo.
In data set [8] the test system is Mus musculus. Briefly: Neurotoxicity against Mus musculus MFI (mouse) assessed as tail erection at 90 mg/kg, ip. Set-up: dose 90 mg/kg, route intraperitoneal. Conditions: in vivo. It is filed as toxicity, organism-based.
Data set [9] has as its system Mus musculus. In words: Neurotoxicity against Mus musculus MFI (mouse) assessed as epilepsy at 90 mg/kg, ip. It is filed as toxicity, organism-based. The conditions noted are these: in vivo. On the set-up: dose 90 mg/kg, route intraperitoneal.
Data set [10] concerns Mus musculus. In words: Neurotoxicity against Mus musculus MFI (mouse) assessed as excitation at 90 mg/kg, ip. Type of data set: toxicity, organism-based. On the set-up: dose 90 mg/kg, route intraperitoneal. The conditions noted are these: in vivo.
Data set [11] has as its system Mus musculus. Briefly: […] activity in Mus musculus MFI (mouse) assessed as inhibition of PBQ-induced writhing at 90 mg/kg, ip administered 1.5 hr prior to PBQ-challenge measured after 10 min relative to aspirin. The conditions noted are these: route intraperitoneal. It is filed as functional. On the technique in general: Writhing tests count abdominal constrictions after an irritant is injected.

In data set [12] the test system is Mus musculus. Briefly: […] activity in ip dosed Mus musculus MFI (mouse) assessed as inhibition of PBQ-induced writhing administered 1.5 hr prior to PBQ-challenge measured after 10 min. Type of data set: functional. Conditions: read-out: MED.
Data set [13] has as its system Mus musculus. In words: Neurotoxicity in ip dosed Mus musculus MFI (mouse). Conditions: in vivo. It is filed as toxicity, organism-based.
Data set [14] deals with Mus musculus. Briefly: Neurotoxicity against Mus musculus MFI (mouse) assessed as muscle twitching at 50 mg/kg, ip. Type of data set: toxicity, organism-based, Muscle tissue. On the set-up: dose 50 mg/kg, route intraperitoneal. Conditions: in vivo.
In data set [15] the test system is Mus musculus. Briefly: Neurotoxicity against Mus musculus MFI (mouse) assessed as tremors at 50 mg/kg, ip. It is filed as toxicity, organism-based. Set-up: dose 50 mg/kg, route intraperitoneal. The conditions noted are these: in vivo.
The subject of data set [16] is Mus musculus. Briefly: Neurotoxicity against Mus musculus MFI (mouse) assessed as effect on respiration at 50 mg/kg, ip. Type of data set: toxicity, organism-based. Set-up: dose 50 mg/kg, route intraperitoneal. Conditions: in vivo.
Data set [17] deals with Mus musculus. In words: Neurotoxicity against Mus musculus MFI (mouse) assessed as irritability at 50 mg/kg, ip. Conditions: in vivo. On the set-up: dose 50 mg/kg, route intraperitoneal. It is filed as toxicity, organism-based.
The subject of data set [18] is Mus musculus. Briefly: Neurotoxicity against Mus musculus MFI (mouse) assessed as eye protrusion at 50 mg/kg, ip. Type of data set: toxicity, organism-based. On the set-up: dose 50 mg/kg, route intraperitoneal. The conditions noted are these: in vivo.
The test system of data set [19] is Mus musculus. In words: Neurotoxicity against Mus musculus MFI (mouse) assessed as skeletal muscle incoordination at 50 mg/kg, ip. Type of data set: toxicity, organism-based, Muscle tissue. Set-up: dose 50 mg/kg, route intraperitoneal. The conditions noted are these: in vivo.
The test system of data set [20] is Mus musculus. In words: Neurotoxicity against Mus musculus MFI (mouse) assessed as hair erection at 50 mg/kg, ip. It is filed as toxicity, organism-based. Conditions: in vivo. On the set-up: dose 50 mg/kg, route intraperitoneal.
For data set [21], the system named is Mus musculus. Briefly: Neurotoxicity against Mus musculus MFI (mouse) assessed as tail erection at 50 mg/kg, ip. The conditions noted are these: in vivo. On the set-up: dose 50 mg/kg, route intraperitoneal. Type of data set: toxicity, organism-based.
Data set [22] has as its system Mus musculus. Briefly: Neurotoxicity against Mus musculus MFI (mouse) assessed as epilepsy at 50 mg/kg, ip. On the set-up: dose 50 mg/kg, route intraperitoneal. It is filed as toxicity, organism-based. The conditions noted are these: in vivo.
In data set [23] the test system is Mus musculus. In words: Neurotoxicity against Mus musculus MFI (mouse) assessed as excitation at 50 mg/kg, ip. It is filed as toxicity, organism-based. Set-up: dose 50 mg/kg, route intraperitoneal. Conditions: in vivo.
Data set [24] concerns Mus musculus. In words: Neurotoxicity against Mus musculus MFI (mouse) assessed as tremors at 135 mg/kg, ip. The conditions noted are these: in vivo. On the set-up: dose 135 mg/kg, route intraperitoneal. It is filed as toxicity, organism-based.
Data set [25] relates to Mus musculus. Briefly: Neurotoxicity against Mus musculus MFI (mouse) assessed as muscle twitching at 135 mg/kg, ip. Type of data set: toxicity, organism-based, Muscle tissue. Set-up: dose 135 mg/kg, route intraperitoneal. The conditions noted are these: in vivo.
In data set [26] the test system is Mus musculus. In words: Neurotoxicity against Mus musculus MFI (mouse) assessed as irritability at 135 mg/kg, ip. Type of data set: toxicity, organism-based. Conditions: in vivo. On the set-up: dose 135 mg/kg, route intraperitoneal.
Data set [27] has as its system Mus musculus. Briefly: Neurotoxicity against Mus musculus MFI (mouse) assessed as effect on respiration at 135 mg/kg, ip. It is filed as toxicity, organism-based. Set-up: dose 135 mg/kg, route intraperitoneal. Conditions: in vivo.
The test system of data set [28] is Mus musculus. Briefly: Neurotoxicity against Mus musculus MFI (mouse) assessed as eye protrusion at 135 mg/kg, ip. On the set-up: dose 135 mg/kg, route intraperitoneal. The conditions noted are these: in vivo. It is filed as toxicity, organism-based.
Data set [29] concerns Mus musculus. Briefly: Neurotoxicity against Mus musculus MFI (mouse) assessed as skeletal muscle incoordination at 135 mg/kg, ip. It is filed as toxicity, organism-based, Muscle tissue. Set-up: dose 135 mg/kg, route intraperitoneal. The conditions noted are these: in vivo.
Data set [30] has as its system Mus musculus. Briefly: Neurotoxicity against Mus musculus MFI (mouse) assessed as hair erection at 135 mg/kg, ip. It is filed as toxicity, organism-based. Set-up: dose 135 mg/kg, route intraperitoneal. The conditions noted are these: in vivo.
Data set [31] has as its system Mus musculus. In words: Neurotoxicity against Mus musculus MFI (mouse) assessed as epilepsy at 135 mg/kg, ip. It is filed as toxicity, organism-based. On the set-up: dose 135 mg/kg, route intraperitoneal. The conditions noted are these: in vivo.
The subject of data set [32] is Mus musculus. In words: Neurotoxicity against Mus musculus MFI (mouse) assessed as tail erection at 135 mg/kg, ip. It is filed as toxicity, organism-based. On the set-up: dose 135 mg/kg, route intraperitoneal. The conditions noted are these: in vivo.
For data set [33], the system named is Mus musculus. Briefly: Neurotoxicity against Mus musculus MFI (mouse) assessed as excitation at 135 mg/kg, ip. Conditions: in vivo. Set-up: dose 135 mg/kg, route intraperitoneal. It is filed as toxicity, organism-based.
Data set [34] relates to Mus musculus. Briefly: […] activity in Mus musculus MFI (mouse) assessed as inhibition of PBQ-induced writhing at 50 mg/kg, ip administered 1.5 hr prior to PBQ-challenge measured after 10 min relative to aspirin. It is filed as functional. The conditions noted are these: route intraperitoneal.
The subject of data set [35] is Mus musculus. Briefly: […] activity in Mus musculus MFI (mouse) assessed as inhibition of PBQ-induced writhing at 135 mg/kg, ip administered 1.5 hr prior to PBQ-challenge measured after 10 min relative to aspirin. The conditions noted are these: route intraperitoneal. Type of data set: functional.

Turning to `CC(CN1CCN(C)CC1)Oc1cccc(Cl)c1Cl.O=C(O)C(=O)O` (racemic), the Activity entry in the data set on Mus musculus [1], in the data set with Mus musculus [2], in the data set on Mus musculus [3], in the data set with Mus musculus [4], with Mus musculus [5] and in the data set on Mus musculus [6] was “Toxic” throughout. The Activity entry with Mus musculus [7], with Mus musculus [8], in the data set with Mus musculus [9] and in the data set with Mus musculus [10] was “Toxic” in each case. For the same compound, in the data set on Mus musculus [11], the inhibition in vivo at 90 mg/kg amounted to 85%.
Regarding `CC(COc1cc(Cl)ccc1Cl)N1CCN(C)CC1.O=C(O)C(=O)O` (racemic), in the data set on Mus musculus [12], the minimal effective dose is 60 mg/kg. This compound returned an MTC in the data set on Mus musculus [13] of 90 mg/kg. For the same compound, the Activity entry with Mus musculus [14], in the data set on Mus musculus [15], in the data set with Mus musculus [16], in the data set on Mus musculus [17], in the data set on Mus musculus [18] and with Mus musculus [19] was “Toxic” in each case. Moreover, the Activity entry in the data set with Mus musculus [20], in the data set with Mus musculus [21], with Mus musculus [22], in the data set with Mus musculus [23], with Mus musculus [1] and with Mus musculus [2] was “Toxic” in each case. The Activity result in the data set with Mus musculus [3], in the data set on Mus musculus [4], with Mus musculus [5], with Mus musculus [6], in the data set on Mus musculus [7] and with Mus musculus [8] was “Toxic” each time. Further, the Activity entry with Mus musculus [9], in the data set with Mus musculus [10], in the data set on Mus musculus [24], in the data set with Mus musculus [25], in the data set on Mus musculus [26] and in the data set with Mus musculus [27] was “Toxic” in each case. The Activity result with Mus musculus [28], in the data set with Mus musculus [29], in the data set with Mus musculus [30], with Mus musculus [31], with Mus musculus [32] and with Mus musculus [33] was “Toxic” in each case. The inhibition in vivo at 50 mg/kg in the data set with Mus musculus [34] came to 50%. Further, the inhibition in vivo at 90 mg/kg with Mus musculus [11] is 62.5%. The inhibition in vivo at 135 mg/kg with Mus musculus [35] was 100%.
